Counter-ions that a name gives are not always drawn.
Molecular target: T1, apelin receptor (APJ) (Homo sapiens, UniProt P35414)
T1 sequence (P35414 1-380): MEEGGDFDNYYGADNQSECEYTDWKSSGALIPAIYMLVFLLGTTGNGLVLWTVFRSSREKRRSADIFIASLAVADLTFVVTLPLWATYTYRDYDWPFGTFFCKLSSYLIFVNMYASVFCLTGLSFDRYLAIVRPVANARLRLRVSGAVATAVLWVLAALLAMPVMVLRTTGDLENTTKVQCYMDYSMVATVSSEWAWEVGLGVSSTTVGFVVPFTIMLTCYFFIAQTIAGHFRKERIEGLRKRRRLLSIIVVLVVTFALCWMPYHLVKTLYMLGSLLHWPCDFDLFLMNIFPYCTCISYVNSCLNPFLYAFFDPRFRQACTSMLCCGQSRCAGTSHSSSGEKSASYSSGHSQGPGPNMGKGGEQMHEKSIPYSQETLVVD
Experiment: In vitro apelin agonist activity (methods of Giddings et al., Apelin-13 as positive control)
Format: cell-based
Conditions: EC50 (nM) Ave, in vitro apelin agonist activity, methods of Giddings et al., Apelin-13 as positive control
Source text: Characterization of the Apelin Agonist Activity of the Compounds
1:39-47, the contents of which are hereby incorporated by reference in its entirety. Using the methods described in Giddings et al. and Apelin-13 as a positive control.

Row | Compound | EC50
1 | COc1cccc(OC)c1-c1cc(C(=O)N[C@@H](CCc2ccccc2)C(=O)O)nn1CC(C)C [compound 311, (2S)-2-{[5-(2,6-dimethoxyphenyl)-1-(2-methylpropyl)-1H-pyrazol-3-yl]formamido}-4-phenylbutanoic acid] | > 10000 nM

Same assay, conditions: in vitro apelin agonist activity, methods of Giddings et al., Apelin-13 as positive control; read-out: EC50 (nM) Ave

Row | Compound | EC50
2 | COCCN(C)C(=O)[C@H](CCc1ccccc1)NC(=O)c1nc(-c2ncccc2C(F)(F)F)n(C2CCCC2)n1 [compound 564] | 982 nM
3 | COc1cccc(OC)c1-c1cc(C(=O)N[C@@H](CCN2CCOCC2)CC(=O)NC2CCC2)nn1C1CCCC1 [compound 312, (3S)-N-cyclobutyl-3-{[1-cyclopentyl-5-(2,6-dimethoxyphenyl)-1H-pyrazol-3-yl]formamido}-5-(morpholin-4-yl)pentanamide] | 343 nM
4 | O=C(O)C[C@H](CCN1CCCC(F)(F)C1)NC(=O)c1cc(-c2ccc(F)cc2C(F)(F)F)n(C2CCCC2)n1 [compound 554] | 126 nM
5 | COc1cccc(OC)c1-c1cc(C(=O)N[C@@H](CCN2CCCCC2)CC(=O)Nc2nccs2)nn1C1CCCC1 [compound 338, (3S)-3-{[1-cyclopentyl-5-(2,6-dimethoxyphenyl)-1H-pyrazol-3-yl]formamido}-5-(piperidin-1-yl)-N-(1,3-thiazol-2-yl)pentanamide] | 12 nM
6 | O=C(C[C@H](CCN1CCCCC1)NC(=O)c1cc(-c2ccccc2C(F)(F)F)n(C2CCCC2)n1)NC1CCC1 [compound 408, (3S)-N-cyclobutyl-3-({1-cyclopentyl-5-[2-(trifluoromethyl)phenyl]-1H-pyrazol-3-yl]formamido)-5-(piperidin-1-yl)pentanamide] | 64 nM
7 | COc1cccc(OC)c1-c1cc(C(=O)N[C@@H](CCc2ccccc2)CC(=O)Nc2nccs2)nn1C1CCCC1 [compound 380, (3S)-3-{[1-cyclopentyl-5-(2,6-dimethoxyphenyl)-1H-pyrazol-3-yl]formamido}-5-phenyl-N-(1,3-thiazol-2-yl)pentanamide] | 94 nM
8 | O=C(C[C@H](CCN1CCCCC1)NC(=O)c1cc(-c2cscn2)n(C2CCCC2)n1)NC1CCC1 [compound 378, (3S)-N-cyclobutyl-3-{[1-cyclopentyl-5-(1,3-thiazol-4-yl)-1H-pyrazol-3-yl]formamido}-5-(piperidin-1-yl)pentanamide] | 9390 nM
9 | O=C(C[C@H](CCN1CCCCC1)NC(=O)c1cc(-c2c(F)cc(F)cc2F)n(C2CCCC2)n1)NC1CCC1 [compound 354, (3S)-N-cyclobutyl-3-{[1-cyclopentyl-5-(2,4,6-trifluorophenyl)-1H-pyrazol-3-yl]formamido}-5-(piperidin-1-yl)pentanamide] | > 10000 nM
10 | CC(F)(F)c1ccccc1-c1cc(C(=O)N[C@@H](CCN2CCCC(F)(F)C2)CC(=O)O)nn1C1CCCC1 [compound 432, (3S)-3-({1-cyclopentyl-5-[2-(1,1-difluoroethyl)phenyl]-1H-pyrazol-3-yl}formamido)-5-(3,3-difluoropiperidin-1-yl)pentanoic acid] | 16 nM
11 | COc1cccc(OC)c1-c1cc(C(=O)N[C@@H](CCN2CCCC2)CC(=O)OC(C)(C)C)nn1C1CCCC1 [compound 316, tert-butyl (3S)-3-{[1-cyclopentyl-5-(2,6-dimethoxyphenyl)-1H-pyrazol-3-yl]formamido}-5-(pyrrolidin-1-yl)pentanoate] | > 10000 nM
12 | O=C(O)C[C@H](CCN1CCCC(F)(F)C1)NC(=O)c1cc(-c2ccccc2C(F)(F)F)n(CC2CC2)n1 [compound 557, (3S)-3-{[1-(cyclopropylmethyl)-5-[2-(trifluoromethyl)phenyl]-1H-pyrazol-3-yl]formamido}-5-(3,3-difluoropiperidin-1-yl)pentanoic acid] | 401 nM
13 | CN(C(=O)C[C@H](CCN1CCCC(F)(F)C1)NC(=O)c1cc(-c2ccccc2Cl)n(C2CCCC2)n1)c1nccs1 [compound 447, (3S)-3-{[5-(2-chlorophenyl)-1-cyclopentyl-1H-pyrazol-3-yl]formamido}-5-(3,3-difluoropiperidin-1-yl)-N-methyl-N-(1,3-thiazol-2-yl)pentanamide] | 84 nM
14 | CCc1ccccc1-c1cc(C(=O)N[C@@H](CCN2CCCCC2)CC(=O)Nc2nccs2)nn1C1CCCC1 [compound 406, (3S)-3-{[1-cyclopentyl-5-(2-ethylphenyl)-1H-pyrazol-3-yl]formamido}-5-(piperidin-1-yl)-N-(1,3-thiazol-2-yl)pentanamide] | 22 nM
15 | COc1cccc(OC)c1-c1cc(C(=O)N[C@H](CC#N)CCc2ccccc2)nn1C1CCCC1 [compound 391, N-[(2S)-1-cyano-4-phenylbutan-2-yl]-1-cyclopentyl-5-(2,6-dimethoxyphenyl)-1H-pyrazole-3-carboxamide] | 6340 nM
16 | Cc1cc(C)n(CC[C@@H](CC(=O)N(C)c2nccs2)NC(=O)c2cc(-c3ccccc3C(F)(F)F)n(C3CCCC3)n2)n1 [compound 502, (3S)-3-({1-cyclopentyl-5-[2-(trifluoromethyl)phenyl]-1H-pyrazol-3-yl}formamido)-5-(3,5-dimethyl-1H-pyrazol-1-yl)-N-methyl-N-(1,3-thiazol-2-yl)pentanamide] | 77 nM
17 | O=C(O)C[C@H](CCN1C[C@@H](F)[C@H](F)C1)NC(=O)c1cc(-c2ccccc2C(F)(F)F)n(C2CCCC2)n1 [compound 631, (3S)-3-({1-cyclopentyl-5-[2-(trifluoromethyl)phenyl]-1H-pyrazol-3-yl}formamido)-5-[(3R,4R)-3,4-difluoropyrrolidin-1-yl]pentanoic acid] | 75 nM
18 | O=C(O)C[C@H](CCNC1(C(F)(F)F)CCCC1)NC(=O)c1cc(-c2ccccc2C(F)(F)F)n(C2CCCC2)n1 [compound 615, (3S)-3-({1-cyclopentyl-5-[2-(trifluoromethyl)phenyl]-1H-pyrazol-3-yl}formamido)-5-{[1-(trifluoromethyl)cyclopentyl]amino}pentanoic acid trifluoroacetate] | 353 nM
19 | O=C(O)C[C@H](CCN1CCCC(F)(F)C1)NC(=O)c1cc(-c2c(Cl)cccc2C(F)(F)F)n(C2CCCC2)n1 [compound 556, (3S)-3-({-[2-chloro-6-(trifluoromethyl)phenyl]-1-cyclopentyl-1H-pyrazol-3-yl}formamido)-5-(3,3-difluoropiperidin-1-yl)pentanoic acid] | > 10 nM
20 | O=C(O)C[C@H](CCN1CC2C(C1)C2(F)F)NC(=O)c1cc(-c2ccccc2C(F)(F)F)n(C2CCCC2)n1 (stereo partly drawn) [compound 603, (3S)-3-({1-cyclopentyl-5-[2-(trifluoromethyl)phenyl]-1H-pyrazol-3-yl}formamido)-5-{6,6-difluoro-3-azabicyclo[3.1.0]hexan-3-yl}pentanoic acid] | 46 nM
21 | CCC(CC)n1nc(C(=O)N(CC)[C@@H](CCN2CCCCC2)CC(=O)NC2CCC2)cc1-c1c(OC)cccc1OC [compound 346, (3S)-N-cyclobutyl-3-{1-[5-(2,6-dimethoxyphenyl)-1-(pentan-3-yl)-1H-pyrazol-3-yl]-N-ethylformamido}-5-(piperidin-1-yl)pentanamide] | > 10000 nM
22 | C[C@@H](C[C@@H](CC(=O)O)NC(=O)c1cc(-c2ccccc2C(F)(F)F)n(C2CCCC2)n1)N1CCC(F)(F)C1 [compound 572, (3S,5S)-3-({1-cyclopentyl-5-[2-(trifluoromethyl)phenyl]-1H-pyrazol-3-yl}formamido)-5-(3,3-difluoropyrrolidin-1-yl)hexanoic acid] | 124 nM
23 | CC(c1nnn[nH]1)[C@H](CCN1CC2C(C1)C2(F)F)NC(=O)c1cc(-c2ccccc2C(F)(F)F)n(C2CCCC2)n1 (stereo partly drawn) [compound 637, 1-cyclopentyl-N-[(3S)-1-{6,6-difluoro-3-azabicyclo[3.1.0]hexan-3-yl}-4-(1H-1,2,3,4-tetrazol-5-yl)pentan-3-yl]-5-[2-(trifluoromethyl)phenyl]-1H-pyrazole-3-carboxamide] | 21 nM
24 | COc1cccc(OC)c1-c1cc(C(=O)N[C@@H](/C=C/c2ccccn2)CC(=O)NC2CCC2)nn1C1CCCC1 [compound 435, (3R,4E)-N-cyclobutyl-3-{[1-cyclopentyl-5-(2,6-dimethoxyphenyl)-1H-pyrazol-3-yl]formamido}-5-(pyridin-2-yl)pent-4-enamide] | 9210 nM
25 | O=C(O)C[C@H](CCN1C[C@H](F)[C@@H](F)C1)NC(=O)c1cc(-c2ccccc2C(F)(F)F)n(C2CCCC2)n1 [compound 582, (3S)-3-({1-cyclopentyl-5-[2-(trifluoromethyl)phenyl]-1H-pyrazol-3-yl}formamido)-5-[(3S,4S)-3,4-difluoropyrrolidin-1-yl]pentanoic acid] | 109 nM
26 | O=C(C[C@H](CC(=O)N1CCCC(F)(F)C1)NC(=O)c1cc(-c2ccccc2C(F)(F)F)n(C2CCCC2)n1)NC1CCC1 [compound 515, (3R)-N-cyclobutyl-3-({1-cyclopentyl-5-[2-(trifluoromethyl)phenyl]-1H-pyrazol-3-yl}formamido)-5-(3,3-difluoropiperidin-1-yl)-5-oxopentanamide] | 47 nM
27 | COc1cccc(OC)c1-c1cc(C(=O)N[C@@H](CCc2ccc(F)cc2)CC(=O)NC2CCC2)nn1C1CCCC1 [compound 416, (3S)-N-cyclobutyl-3-{[1-cyclopentyl-5-(2,6-dimethoxyphenyl)-1H-pyrazol-3-yl]formamido}-5-(4-fluorophenyl)pentanamide] | 606 nM
28 | COc1cccc(OC)c1-c1cc(C(=O)N[C@H](CC(=O)NC2CCC2)Cc2ccccc2)nn1CC(C)C [compound 321, (3S)-N-cyclobutyl-3-{[5-(2,6-dimethoxyphenyl)-1-(2-methylpropyl)-1H-pyrazol-3-yl]formamido}-4-phenylbutanamide] | 114 nM

— patent US11535630B2, “Apelin receptor (APJ) agonists and uses thereof” (Research Triangle Institute, priority 2015, dated 2022)
